Data published in PubChem BioAssay AID330 (DTP/NCI, 2004).
Several values for one entry are separate records, joined by “and”; a condition that tells them apart may be missing. Identical values can stand only once. Toxic doses and inconclusive results are not listed.

Tested on: P388 leukemia ip, CD2F1 mice, survival T/C
Assay: NCI In Vivo Anticancer Drug Screen. Data for tumor model P388 Leukemia (intraperitoneal) in CD2F1 (CDF1) mice
Conditions: endpoint: median survival time, higher = longer survival
Outline: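 Mice carrying the transplanted tumor received test compound or vehicle. Survival was recorded in each group, and the value is the treated-group measurement divided by that of the vehicle-treated control group.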

[1] = dose: 60.0 mg/kg/injection, schedule: Q01DX005 (ip), vehicle: saline with Tween-80
[2] = dose: 120.0 mg/kg/injection, schedule: Q01DX005 (ip), vehicle: saline with Tween-80
[3] = dose: 50.0 mg/kg/injection, schedule: Q01DX009 (ip), vehicle: saline with Tween-80
[4] = dose: 100.0 mg/kg/injection, schedule: Q01DX009 (ip), vehicle: saline with Tween-80
[5] = dose: 200.0 mg/kg/injection, schedule: Q01DX009 (ip), vehicle: saline with Tween-80
[6] = dose: 50.0 mg/kg/injection, schedule: Q01DX005 (ip), vehicle: saline with Tween-80
[7] = dose: 100.0 mg/kg/injection, schedule: Q01DX005 (ip), vehicle: saline with Tween-80
[8] = dose: 50.0 mg/kg/injection, schedule: Q01DX005 (ip), vehicle: Klucel (hydroxypropylcellulose) (HPC)
[9] = dose: 100.0 mg/kg/injection, schedule: Q01DX005 (ip), vehicle: Klucel (hydroxypropylcellulose) (HPC)
[10] = dose: 200.0 mg/kg/injection, schedule: Q01DX005 (ip), vehicle: Klucel (hydroxypropylcellulose) (HPC)

CC[PH+](CC)CC[S-].CC[PH+](CC)CC[S-].[Au+].[Au+]
T/C (dose: 2.5 mg/kg/injection, schedule: Q01DX009 (ip), vehicle: Klucel (hydroxypropylcellulose) (HPC)): 109 % of control | T/C (dose: 5.0 mg/kg/injection, schedule: Q01DX009 (ip), vehicle: Klucel (hydroxypropylcellulose) (HPC)): 114 % of control and 115 % of control | T/C (dose: 20.0 mg/kg/injection, schedule: Q01DX009 (ip), vehicle: Klucel (hydroxypropylcellulose) (HPC)): 153 % of control | T/C (dose: 40.0 mg/kg/injection, schedule: Q01DX009 (ip), vehicle: Klucel (hydroxypropylcellulose) (HPC)): 87 % of control

O=C(Cn1cnc2ccc([N+](=O)[O-])cc21)N1CCN(c2ccccc2)CC1
T/C [1]: 93 % of control | T/C [2]: 93 % of control

Oc1c(CN2CCOCC2)cc(CN2CCOCC2)cc1CN1CCOCC1
T/C [3]: 94 % of control | T/C [4]: 103 % of control | T/C [5]: 100 % of control | T/C (dose: 400.0 mg/kg/injection, schedule: Q01DX009 (ip), vehicle: saline with Tween-80): 100 % of control

Cc1ccc(C)c(N2C(=O)CC3(CCCC3)C2=O)c1
T/C (dose: 100.0 mg/kg/injection, schedule: Q04DX003 (ip), vehicle: Klucel (hydroxypropylcellulose) (HPC)): 101 % of control | T/C (dose: 200.0 mg/kg/injection, schedule: Q04DX003 (ip), vehicle: Klucel (hydroxypropylcellulose) (HPC)): 101 % of control | T/C (dose: 400.0 mg/kg/injection, schedule: Q04DX003 (ip), vehicle: Klucel (hydroxypropylcellulose) (HPC)): 99 % of control

CC1=NOC(=O)/C1=C/c1ccccc1C
T/C [6]: 104 % of control | T/C [7]: 104 % of control

O=C1Cc2ccccc2N1C(=O)c1ccc(F)cc1
T/C (dose: 100.0 mg/kg/injection, schedule: Q01DX001 (ip), vehicle: Klucel (hydroxypropylcellulose) (HPC)): 102 % of control | T/C (dose: 200.0 mg/kg/injection, schedule: Q01DX001 (ip), vehicle: Klucel (hydroxypropylcellulose) (HPC)): 92 % of control | T/C (dose: 400.0 mg/kg/injection, schedule: Q01DX001 (ip), vehicle: Klucel (hydroxypropylcellulose) (HPC)): 95 % of control

CCOc1ccc(NC(=O)/C(=C\c2ccc(C)cc2)C(C)=O)cc1
T/C [6]: 106 % of control | T/C [7]: 110 % of control | T/C (dose: 200.0 mg/kg/injection, schedule: Q01DX005 (ip), vehicle: saline with Tween-80): 104 % of control

O=C(O)C12CCC(c3ccccc31)c1ccccc12
T/C [1]: 101 % of control | T/C [2]: 107 % of control | T/C (dose: 240.0 mg/kg/injection, schedule: Q01DX005 (ip), vehicle: saline with Tween-80): 100 % of control

CC(CCN1CCOCC1)Nc1ccnc2cc(Cl)ccc12 (stereo not given)
T/C (dose: 12.5 mg/kg/injection, schedule: Q01DX005 (ip), vehicle: saline): 98 % of control | T/C (dose: 25.0 mg/kg/injection, schedule: Q01DX005 (ip), vehicle: saline): 102 % of control | T/C (dose: 50.0 mg/kg/injection, schedule: Q01DX005 (ip), vehicle: saline): 107 % of control and 95 % of control

CC[N+](CC)=c1ccc2nc3c(cc(Nc4ccccc4)c4ccccc43)oc-2c1.[Cl][Zn][Cl]
T/C (dose: 60.0 mg/kg/injection, schedule: Q01DX005 (ip), vehicle: Klucel (hydroxypropylcellulose) (HPC)): 98 % of control | T/C (dose: 120.0 mg/kg/injection, schedule: Q01DX005 (ip), vehicle: Klucel (hydroxypropylcellulose) (HPC)): 107 % of control

C[CH2][Sn]([CH2]C)([CH2]C(=O)OC)[CH2]C(=O)OC
T/C (dose: 9.0 mg/kg/injection, schedule: Q03HX015 (ip), vehicle: saline with Tween-80): 153 % of control | T/C (dose: 12.5 mg/kg/injection, schedule: Q01DX009 (ip), vehicle: saline with Tween-80): 170 % of control | T/C (dose: 18.0 mg/kg/injection, schedule: Q01DX005 (ip), vehicle: saline with Tween-80): 150 % of control | T/C [4]: 174 % of control

C=C1C(=O)OC2C1CCC(=C)C1CC(O)C(=C)C12 (stereo not given)
T/C (dose: 9.37 mg/kg/injection, schedule: Q01DX009 (ip), vehicle: suspension in saline): 103 % of control | T/C (dose: 18.75 mg/kg/injection, schedule: Q01DX009 (ip), vehicle: suspension in saline): 119 % of control and 123 % of control | T/C (dose: 37.5 mg/kg/injection, schedule: Q01DX009 (ip), vehicle: suspension in saline): 121 % of control

NC(=S)N1CCCC1
T/C (dose: 25.0 mg/kg/injection, schedule: Q01DX009 (ip), vehicle: saline with Tween-80): 95 % of control | T/C [3]: 93 % of control | T/C [4]: 98 % of control | T/C [5]: 89 % of control

Oc1ccccc1C=Nc1c(Cl)cc(Cl)cc1Cl
T/C [8]: 105 % of control | T/C [9]: 109 % of control | T/C [10]: 107 % of control

COC(=O)/C=C/C=C/c1ccco1
T/C [3]: 99 % of control | T/C [4]: 87 % of control | T/C [5]: 89 % of control

CCCCCCCCCCCC(=O)NCC(=O)NC1C(C)OC(Nc2ncnc3nc[nH]c23)C(O)C1O (stereo not given)
T/C (dose: 0.25 mg/kg/injection, schedule: Q01DX009 (ip), vehicle: other): 113 % of control | T/C (dose: 0.5 mg/kg/injection, schedule: Q01DX009 (ip), vehicle: other): 109 % of control

CC1=CC(c2c(O)cc(O)c(C(=O)CCc3ccccc3)c2O)C(C(C)C)CC1 (stereo not given)
T/C (dose: 3.75 mg/kg/injection, schedule: Q01DX005 (ip), vehicle: Klucel + Tween-80): 94 % of control | T/C (dose: 7.5 mg/kg/injection, schedule: Q01DX005 (ip), vehicle: Klucel + Tween-80): 103 % of control | T/C (dose: 15.0 mg/kg/injection, schedule: Q01DX005 (ip), vehicle: Klucel + Tween-80): 97 % of control | T/C (dose: 30.0 mg/kg/injection, schedule: Q01DX005 (ip), vehicle: Klucel + Tween-80): 98 % of control

OC(c1cc(C(F)(F)F)nc2c(Cl)cc(Cl)cc12)C1CCCCN1 (stereo not given)
T/C [3]: 105 % of control | T/C [4]: 106 % of control

[Co].[NH-]CCC[NH-].[NH-]CCC[NH-].[NH-]CCC[NH-]
T/C (dose: 25.0 mg/kg/injection, schedule: Q04DX002 (ip), vehicle: saline): 99 % of control | T/C (dose: 50.0 mg/kg/injection, schedule: Q04DX002 (ip), vehicle: saline): 98 % of control | T/C (dose: 100.0 mg/kg/injection, schedule: Q04DX002 (ip), vehicle: saline): 100 % of control

CC(CCC(=O)O)(c1ccc(O)cc1)c1ccc(O)cc1
T/C (dose: 100.0 mg/kg/injection, schedule: Q04DX003 (ip), vehicle: other): 95 % of control | T/C (dose: 200.0 mg/kg/injection, schedule: Q04DX003 (ip), vehicle: other): 95 % of control | T/C (dose: 400.0 mg/kg/injection, schedule: Q04DX003 (ip), vehicle: other): 90 % of control

CC(C)NCCCNc1c2ccccc2nc2cccc([N+](=O)[O-])c12
T/C (dose: 0.09 mg/kg/injection, schedule: Q01DX009 (ip), vehicle: saline): 100 % of control and 86 % of control | T/C (dose: 0.19 mg/kg/injection, schedule: Q01DX009 (ip), vehicle: saline): 100 % of control and 97 % of control | T/C (dose: 0.39 mg/kg/injection, schedule: Q01DX009 (ip), vehicle: saline): 100 % of control and 106 % of control and 92 % of control | T/C (dose: 0.79 mg/kg/injection, schedule: Q01DX009 (ip), vehicle: saline): 105 % of control and 123 % of control and 90 % of control | T/C (dose: 1.56 mg/kg/injection, schedule: Q01DX009 (ip), vehicle: saline): 109 % of control

O=c1[nH]c(=O)c2ncn(C3OC(CO)C(O)C3O)c2[nH]1.O=c1[nH]c(=O)c2ncn(C3OC(CO)C(O)C3O)c2[nH]1.[NH2-].[NH2-].[Pt+2] (stereo not given)
T/C (dose: 6.25 mg/kg/injection, schedule: Q01DX009 (ip), vehicle: saline): 105 % of control | T/C (dose: 12.5 mg/kg/injection, schedule: Q01DX009 (ip), vehicle: saline): 110 % of control and 102 % of control | T/C (dose: 25.0 mg/kg/injection, schedule: Q01DX009 (ip), vehicle: saline): 92 % of control and 107 % of control | T/C (dose: 50.0 mg/kg/injection, schedule: Q01DX009 (ip), vehicle: saline): 100 % of control and 107 % of control | T/C (dose: 50.0 mg/kg/injection, schedule: Q04DX003 (ip), vehicle: suspension in saline): 105 % of control | T/C (dose: 100.0 mg/kg/injection, schedule: Q01DX009 (ip), vehicle: saline): 96 % of control and 116 % of control | T/C (dose: 100.0 mg/kg/injection, schedule: Q04DX003 (ip), vehicle: suspension in saline): 110 % of control | T/C (dose: 200.0 mg/kg/injection, schedule: Q04DX003 (ip), vehicle: suspension in saline): 120 % of control | T/C (dose: 400.0 mg/kg/injection, schedule: Q04DX003 (ip), vehicle: water): 174 % of control

COc1cc(OC)c(NC(=S)Nc2cc(Cl)c(OC)cc2OC)cc1Cl
T/C [3]: 106 % of control | T/C [4]: 102 % of control | T/C [5]: 103 % of control

COc1c(NC(C)=O)c2ccccc2c2ccccc12
T/C [8]: 106 % of control | T/C [9]: 109 % of control | T/C [10]: 97 % of control
